Results as given in patent US12174172B2, “Method for evaluating the efficacy of a composition in reducing the effects of cancer therapeutics on skin” (Johnson & Johnson Consumer Inc., priority 2019, dated 2024).
“Also recorded” adds a separate entry of the source. Marks after values point to notes of the source that are not given here.

Assays:
[1] = system: Human epidermal keratinocytes cells (HPEKs), 3D micro-epidermis; test: 3D micro-epidermis model (EpiScreen): epidermis size, toxicity, dose response, classification; type: cell-based;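 note: keratinocytes on micropatterned discs in high-calcium medium, drug exposure for three days, then fixation and confocal high-content imaging of actin, nuclei and a marker, vehicle DMSO-matched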
desmoglein-1 (DSG1) = test: 3D micro-epidermis model (EpiScreen): desmoglein-1 immunostaining; type: cell-based, human
Method: (§1) To assess the effects of such therapy molecules on the epidermis, keratinocytes were grown in the presence of kinase inhibitors during 3 days with high calcium concentration to induce keratinocyte differentiation and generate a 3D-stratified differentiated epidermis. Drug impact on the epidermis development was assessed via different keratinocyte markers including: • Ki-67, an universally expressed protein among proliferating cells and absent in the quiescent cells; • Filaggrin, a filament-associated protein that binds to keratin fibers and is a marker of terminal differentiation; • Desmoglein-1, a component of desmosomes and differentiation marker expressed in all epidermal layer above the basal layer; and • Involucrin, an early differentiation marker expressed in the spinous and granular layers and a protein precursor of the epidermal cornified envelope.
(§2) Human epidermal keratinocytes cells (HPEKs) from a juvenile donor (CellnTec, Switzerland) are cultured in flasks in proliferation medium. Keratinocytes are seeded at passage 6 into EpiScreen™ (Abzena, Cambridge, UK) plates containing collagen 1 coated disc micropatterns (CYTOO, Grenoble, France). Four hours later, unattached cells are washed off and a high calcium medium is added to induce keratinocytes differentiation. The day after, keratinocytes are treated with screening compounds, and Trichostatin A is added at 0.3 μM as an internal positive control. After three days of treatment, micro-epidermises are fixed with a formalin solution 10% for 30 minutes, then permeabilized with 0.1% Triton. Several immunostainings are performed: actin (Acti-Stain 555, PHDH1, Cytoskeleton), nuclei (Hoechst, H3570, Invitrogen), and one biomarker of interest per well either anti-involucrin (HPA055211, Sigma), anti-filaggrin (HPA030189, Sigma) or anti-desmoglein-1 (HPA022128, Sigma). Antibodies are added overnight at 4° C. before staining with secondary antibody, anti-rabbit 488 (711-545-152, Jackson) for 2 hours at room temperature.
(§3) Images of each well are acquired with the Operetta HCS platform (Perkin Elmer, Waltham, MA, USA) using a ×10 objective in confocal mode in eight z-planes from 2 μm to 44 μm in steps of 6 μm in each of the 3 channels: actin, nuclei, and one biomarker of interest. The first step of the image analysis consists in detecting micro-epidermis structures on the first z-plane by segmenting the actin staining. Micro-epidermis structures are validated based on several area and roundness min and max criteria. Then, the area of each biomarker staining is measured inside the valid micro-epidermis masks through each z-plane. For all homogeneous biomarker staining, their intensity through the different planes is measured.
(§4) The actin network of each micro-epidermis is analyzed in each z-plane in order to determine the average 3D structure edges. The biomarker intensity is measured in each z-plane for each structure, and then averaged with the other results generated in the same well. Based on the data generated in the two previous steps, an average 3D reconstruction image is generated. It consists of a meshwork that delimits the structure edges, and a color scaled volume that corresponds to the biomarkers distribution and expression.
The effect of 8 oncology molecules, selected from first generation EGFRi and pan-kinase inhibitors which mostly target VEGFR and second and third generation therapies targeting main mutations relating to first generation treatment resistance, were assessed in vitro using a 3D micro-epidermis model. The drug incubation concentrations (3, 10, 30, 100 nM) were selected to reflect the clinically relevant (unbound) drug exposures (Table 2). The drug impact was assessed by analysis of tissue size and keratinocyte proliferation using Ki-67 staining and keratinocyte differentiation using filaggrin, desmoglein-1 and involucrin staining. […]

involucrin (IVL) = test: 3D micro-epidermis model (EpiScreen): involucrin immunostaining; type: cell-based, human
Method: as §1, §2, §3, §4
The effect of 8 oncology molecules, selected from first generation EGFRi and pan-kinase inhibitors which mostly target VEGFR and second and third generation therapies targeting main mutations relating to first generation treatment resistance, were assessed in vitro using a 3D micro-epidermis model. […] The drug impact was assessed by analysis of tissue size and keratinocyte proliferation using Ki-67 staining and keratinocyte differentiation using filaggrin, desmoglein-1 and involucrin staining.
Size of the epidermis and the expression of the protein junction desmoglein-1 (DSG1), involucrin (IVL) and filaggrin (FLG) was assessed by immunostaining and compared to untreated control. […]

filaggrin (FLG) = test: 3D micro-epidermis model (EpiScreen): filaggrin immunostaining; type: cell-based, human;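 note: human primary epidermal keratinocytes differentiated in high calcium into 3D micro-epidermises, compound-treated for three days, imaged by confocal high-content microscopy, filaggrin staining intensity quantified within actin-segmented structures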
[2] = system: SkinEthic Reconstructed Human Epidermis (RHE); test: Skin barrier function: trans-epidermal water loss (TEWL) on reconstructed human epidermis; type: cell-based; conditions: day 7; SDS 0.5% topical; afatinib 100 nM in the media
Method: The effect of drugs on the skin barrier function was assessed by measuring trans-epidermal water loss (TEWL) rates on SkinEthicTM Reconstructed Human Epidermis (RHE) model (Episkin, Lyon, France) using Tewitro® TW 24 (Courage+Khazaka electronic GmbH, Köln, Germany). This instrument allows 24 simultaneous measurements on RHE. TEWL was analyzed at 33° C. in an incubator. […] Petrolatum, a highly hydrophobic hydrocarbon, water-repelling and insoluble in water was used to block water evaporation at the RHE surface (negative control). […] DMSO was used in the same proportion in the vehicle. SkinEthicTM RHE (Episkin, Lyon, France), is an in vitro reconstructed human epidermis from normal human keratinocytes cultured on an inert polycarbonate filter at the air-liquid interface, in a chemically defined medium. This model exists at different stages of maturity. This model is histologically similar to in vivo human epidermis. See […].com/SkinEthic%20RHE. The Tewitro® TW 24 is a device that measures water evaporation from cultured tissue sets (wells in a plate with medium) in up to 24 wells simultaneously. See https://www.courage-[…].

[3] = cited from earlier work
[4] = most frequent cutaneous adverse reaction reported by the FDA Adverse Event Reporting System; cited from earlier work
[5] = concentration (afatinib 3, 10, 30 nM; pan-kinase inhibitors 100 nM)

For CN(C)C/C=C/C(=O)Nc1cc2c(Nc3ccc(F)c(Cl)c3)ncnc2cc1O[C@H]1CCOC1 [Afatinib], the “Toxicity at 1 μM” value ([1]; 1 μM, micro-epidermis) was “Yes”, the “effect on desmoglein-1, involucrin and filaggrin expression (dose dependence)” value ([1]; 3, 10, 30 nM) was “increases; also recorded: dose-dependent manner” and the Epidermis size ([1]; Table 1 summary of drug effect on epidermis) was “Decreased”. The Classification ([1]; Table 1 summary, pro-differentiation / pro-proliferation) was “Pro-differentiation”, the Epidermis size ([1]; Table 3, 30 nM (EGFRi) or 100 nM (VEGFRi), 3 days, vs untreated control, superscript = significance footnote) was “Decreased^2” and the Classification ([1]; Table 3, pro-proliferation or pro-differentiation) was “Pro-”. For the same compound, the Dose in response ([1]; Table 3, variation of protein expression at 3, 10, 30 nM (EGFRi) or 3, 10, 30, 100 nM (VEGFRi), markers in brackets) was “Yes”, the “toxicity at higher drug concentration” value ([1]; above 1 μM, micro-epidermis) was “toxic leading to epidermal necrosis” and the “micro-epidermis size / epidermal volume” value ([1]; concentration (afatinib 3-30 nM; pan-kinase inhibitors up to 100 nM)) was “significantly decreased; also recorded: significantly reduced”. For the same compound, the Dose/response ([1]; supplementary table, per run (1st or 2nd Run), markers in brackets) was “Yes (DSG, IVL,”, the “DSG 3 nM” value (desmoglein-1 (DSG1); 3 nM, supplementary data) was 38% and the “DSG 30 nM” value (desmoglein-1 (DSG1); 30 nM, supplementary data) was 87%. The activation at 0.01 µM (desmoglein-1 (DSG1); Homo sapiens, 72 h, 10 nM, supplementary data, read-out: DSG 10 nM) was 67%, the DSG-1 expression (desmoglein-1 (DSG1); Table 1 summary) was “Increased” and the “desmoglein-1 expression” value (desmoglein-1 (DSG1); [5]) was “significantly increased; also recorded: increased in a dose-dependent manner”. The “IVL 30 nM” value (involucrin (IVL); 30 nM, supplementary data) was 12%, the activation at 0.1 µM (involucrin (IVL); Homo sapiens, 72 h, 100 nM, supplementary data, two runs, Tox = toxic) was 16% and the activation at 1 µM (involucrin (IVL); Homo sapiens, 72 h, 1 μM, supplementary data, two runs, Tox = toxic) was 27%. The IVL expression (involucrin (IVL); Table 1 summary) was “Increased”, the “involucrin expression” value (involucrin (IVL); [5]) was “significantly increased; also recorded: increased in a dose-dependent manner” and the “FLG 3 nM” value (filaggrin (FLG); 3 nM, supplementary data) was 4%. For the same compound, the “FLG 30 nM” value (filaggrin (FLG); 30 nM, supplementary data) was 19%, the activation at 0.01 µM (filaggrin (FLG); Homo sapiens, 72 h, 10 nM, supplementary data, two runs, read-out: FLG 10 nM) was 12% and the FLG expression (filaggrin (FLG); Table 1 summary) was “Increased”. The “filaggrin expression” value (filaggrin (FLG); concentration (afatinib 10 and 30 nM; pan-kinase inhibitors 100 nM)) was “significantly increased; also recorded: increased in a dose-dependent manner”, the “increase of the TEWL rate” value [2] was “no significant change” and the Cmax ([3]; maximal plasma concentration after a single daily-recommended dose, human) was 32 nM. The Unbound concentration ([3]; unbound plasma concentration, identified or calculated from Cmax and unbound fraction) was 1.6 nM, the Unbound fraction ([3]; unbound to plasma protein) was 5%* and the “Major Skin Effect” value [4] was “Rash”.
